# From PMC12473540, “Cytotoxic Activity of Chemical Constituents of Clerodendrum glabrum and Combretum nelsonii Root Extracts Against Selected Cancer Cell Lines” (Plants, 2025)
# Read-outs that look alike come from different tables or passages of the source.
# Tests used:
# [1] = test system: hormone receptor positive breast cancer (MCF-7) cells; assay: MTT cytotoxicity assay on MCF-7 cells; conditions: for CC50: Homo sapiens, MCF7, 48 h, read-out: MCF-7 (LC50); for Selectivity Index MCF-7: LC50 of Vero cells divided by LC50 of MCF-7
# Experimental: (§1) The antiproliferative activity of the crude extracts and compounds isolated from C. glabrum and C. nelsonii were tested against heterogenous human epithelial colorectal adenocarcinoma (Caco-2) and hormone receptor positive breast cancer (MCF-7) cells using the MTT assay. The Vero African green monkey kidney cells were used as the non-cancerous cell line for comparison. Doxorubicin was used as the positive control.
# The cytotoxic activity of extracts and isolated compounds was evaluated using the MTT assay against colorectal adenocarcinoma (Caco-2, ATCC® HTB-37™), breast adenocarcinoma (MCF-7, ATCC® HTB-22™), and non-cancerous monkey kidney cells (Vero, ATCC® CCL-81™). Cell culture and maintenance were carried out following standard protocols. […] Doxorubicin was used as a positive control, and DMSO as a negative control. Cell viability was determined by MTT reduction and absorbance was measured at 570 nm. LC50 values were calculated, and the selectivity index(SI) was obtained by dividing LC50 values of Vero cells by those of the cancer cell lines.
# [2] = test system: prostate cancer cells (LNCaP); set-up: method as in ref 45 (ref 58); conditions: royleanone; ref 45 (ref 58); read-out: Literature report LNCaP IC50; cited from earlier work
# [3] = test system: human epithelial colorectal adenocarcinoma (Caco-2) cells; assay: MTT cytotoxicity assay on Caco-2 cells; conditions: for CC50: Homo sapiens, Caco-2, 48 h, read-out: Caco-2 (LC50)
# Experimental: as §1
# (§2) The cytotoxic activity of extracts and isolated compounds was evaluated using the MTT assay against colorectal adenocarcinoma (Caco-2, ATCC® HTB-37™), breast adenocarcinoma (MCF-7, ATCC® HTB-22™), and non-cancerous monkey kidney cells (Vero, ATCC® CCL-81™). Cell culture and maintenance were carried out following standard protocols. The cells were seeded in 96-well plates and exposed to varying concentrations of extracts (0.025–1 mg/mL) and compounds (0.2–200 µg/mL) for 48 h. Doxorubicin was used as a positive control, and DMSO as a negative control. Cell viability was determined by MTT reduction and absorbance was measured at 570 nm. LC50 values were calculated, and the selectivity index(SI) was obtained by dividing LC50 values of Vero cells by those of the cancer cell lines.
# [4] = MTT cytotoxicity assay on Caco-2 cells; conditions: African green monkey (Vero) and human (Caco-2), Caco-2
# Experimental: as §1, §2
# [5] = test system: breast MDA-MB-231 cancer cell lines; set-up: method as in doi:10.4103/pm.pm_265_20; conditions: royleanone; read-out: Literature report MDA-MB-231 IC50; cited from earlier work
# [6] = test system: human colon HCT116; set-up: method as in doi:10.4103/pm.pm_265_20; conditions: royleanone, result in words; cited from earlier work
# [7] = test system: gastric adenocarcinoma AGS cells; conditions: cited from earlier work
# [8] = in vitro
# Experimental: as §1, §2
# [9] = test system: triple negative breast cancer HCC70 cells; set-up: method as in doi:10.4314/ecajps.v11i2.44769; conditions: stigmasterol; cited from earlier work
# [10] = test system: MCF-7; conditions: cited from earlier work
# [11] = test system: human colon carcinoma SW620 cell lines; conditions: stigmasterol, in Table 2; cited from earlier work
# [12] = test system: colon cancer cell Caco-2; set-up: method as in doi:10.4314/ecajps.v11i2.44769; conditions: stigmasterol; cited from earlier work
# [13] = test system: lung-NCS (NCI-H460); set-up: method as in ref 50 = [50]; 50. Akim A. Biological Activities of Oryzanol, Stigmasterol and Microminutinin on Human Breast Cancer Cell-Line, MCF-7 Ph.D. Thesis University Putra Malaysia Serdang, Malaysia 2004; conditions: cited from earlier work
# [14] = test system: prostate (DU-145); set-up: method as in ref 50 = [50]; 50. Akim A. Biological Activities of Oryzanol, Stigmasterol and Microminutinin on Human Breast Cancer Cell-Line, MCF-7 Ph.D. Thesis University Putra Malaysia Serdang, Malaysia 2004; conditions: cited from earlier work
# [15] = test system: colon (KM20L2); set-up: method as in ref 50 = [50]; 50. Akim A. Biological Activities of Oryzanol, Stigmasterol and Microminutinin on Human Breast Cancer Cell-Line, MCF-7 Ph.D. Thesis University Putra Malaysia Serdang, Malaysia 2004; conditions: cited from earlier work
# [16] = test system: pancreas-a (BXPC-3); set-up: method as in ref 50 = [50]; 50. Akim A. Biological Activities of Oryzanol, Stigmasterol and Microminutinin on Human Breast Cancer Cell-Line, MCF-7 Ph.D. Thesis University Putra Malaysia Serdang, Malaysia 2004; conditions: cited from earlier work
# [17] = test system: tubulin; set-up: method as in PMID 12059907, PMID 10893310; conditions: combretastatin A-1; read-out: Tubulin inhibition IC50; cited from earlier work
# [18] = test system: leukemia (P388); set-up: method as in ref 50 = [50]; 50. Akim A. Biological Activities of Oryzanol, Stigmasterol and Microminutinin on Human Breast Cancer Cell-Line, MCF-7 Ph.D. Thesis University Putra Malaysia Serdang, Malaysia 2004; conditions: cited from earlier work
# [19] = test system: prostate cancer PC3 cells; set-up: method as in doi:10.18063/cp.v1i4.255, PMID 20614808, PMID 25355727, doi:10.1076/phbi.37.2.148.6082; conditions: ferruginol; read-out: Literature report PC3 (IC50); cited from earlier work
# [20] = test system: human liver hepatocellular carcinoma HepG2 cells; set-up: method as in doi:10.18063/cp.v1i4.255, PMID 20614808, PMID 25355727, doi:10.1076/phbi.37.2.148.6082; conditions: ferruginol; read-out: Literature report HepG2 (IC50); cited from earlier work
# [21] = test system: colon (COL-2) cancer cells; set-up: method as in doi:10.18063/cp.v1i4.255, PMID 20614808, PMID 25355727, doi:10.1076/phbi.37.2.148.6082; conditions: ferruginol; cited from earlier work
# [22] = African green monkey, Vero kidney cells (ATCC CCL-81), non-cancerous
compound,measurement,setting,value
"CC(C)C1=C(O)C(=O)C2=C(CC[C@H]3C(C)(C)CCC[C@]23C)C1=O [Compound 2, 12-hydroxy-8,12-abietadiene-11,14-dione]",CC50,[1],> 200 µg/mL
same,Selectivity Index MCF-7,[1],<0.150
same,IC50,[2],12.5 µM
same,CC50,[3],> 200 µg/mL
same,selectivity ratio at 48 h,[4],< 0.15
same,IC50,[5],> 250 µM
same,Literature report colon HCT116,[6],variable
same,IC50,"[7]; royleanone, read-out: Literature report AGS IC50",18 µM
same,CC50 at 48 h,[8],30.7 µg/mL
"COc1cccc2c1C(=O)c1c(O)c3c(c(O)c1C2=O)C[C@@](O)(C(=O)CO)C[C@@H]3O[C@H]1C[C@H](N)[C@H](O)[C@H](C)O1 [Doxorubicin, reference compound]",CC50,[1],3.1 µg/mL
same,Selectivity Index MCF-7,[1],2.20
same,CC50,[3],0.76 µg/mL
same,selectivity ratio at 48 h,[4],9.08
same,CC50 at 48 h,[8]; African green monkey,6.9 µg/mL
"COc1ccc(C=Cc2cc(OC)c(OC)c(OC)c2)c(OC2OC(CO)C(O)C(O)C2O)c1O [Compound 5a, combretastatin A-1-2′-O-β-D-glucopyranoside]",CC50,[1],44.1 µg/mL
same,Selectivity Index MCF-7,[1],1.90
same,CC50 at 48 h,[8]; [22],83.8 µg/mL
"CC[C@H](C=C[C@@H](C)[C@H]1CC[C@H]2[C@@H]3CC=C4C[C@@H](O)CC[C@]4(C)[C@H]3CC[C@]12C)C(C)C [Compound 6, stigmasta-5,22-dien-3β-ol]",CC50,[1],> 200 µg/mL
same,Selectivity Index MCF-7,[1],<0.690
same,IC50,[9],> 500 µM
same,CC50,[3],> 200 µg/mL
same,selectivity ratio at 48 h,[4],< 0.69
same,IC50,"[10]; stigmasterol, read-out: MCF-7 IC50",> 500 µM
same,CC50 at 48 h,[8],137 µg/mL
same,IC50,[11],2.79 µM
same,IC50,[12],132 µM
"COc1ccc(/C=C\c2cc(OC)c(OC)c(OC)c2)c(O)c1O [Compound 4, 3,4,5-trimethoxy-2′,3′hydroxyl-4′methoxy-stilbene]",CC50,[1],72 µg/mL
same,Selectivity Index MCF-7,[1],0.210
same,NCI-H460 GI50,[13],0.74 µg/mL
same,DU-145 GI50,[14],0.017 µg/mL
same,KM20L2 GI50,[15],0.061 µg/mL
same,BXPC-3 GI50,[16],4.4 µg/mL
same,CC50 at 48 h,[8],15.3 µg/mL
same,IC50,[17],1.1 µM
same,P388 GI50,[18],0.3 µg/mL
"COc1ccc(CCc2cc(OC)c(OC)c(OC)c2)c(OC2OC(CO)C(O)C(O)C2O)c1O [Compound 5b, combretastatin B-1-2′-O-β-D-glucopyranoside]",CC50,[1],44.1 µg/mL
same,Selectivity Index MCF-7,[1],1.90
same,CC50 at 48 h,[8]; [22],83.8 µg/mL
"CC(C)c1cc2c(cc1O)[C@@]1(C)CCCC(C)(C)[C@@H]1CC2 [Compound 1, 12-hydroxy-abieta-8,11,13-triene]",CC50,[1],48.4 µg/mL
same,Selectivity Index Caco-2,[3]; Caco-2,8.23 × 10^−6
same,CC50,[3],24.3 µg/mL
same,IC50,"[7]; ferruginol, read-out: Literature report AGS (IC50)",27 µM
same,IC50,[19],55 µM
same,IC50,[20],68.5 µM
same,IC50,"[10]; ferruginol, read-out: Literature report MCF-7 (IC50)",12 µM
same,CC50 at 48 h,[8]; African green monkey,0.0002 µg/mL
same,Literature report colon (COL-2) ED50,[21],> 20 µg/mL
